This is an account of results in patent US20060252807A1, “Novel ortho-terphenyl inhibitors of p38 kinase and methods of treating inflammatory disorders” (Kalypsys, Inc., priority 2005, published 2006).

Molecules are shown by their SMILES. Some results are limits rather than exact numbers.

For the experiment, the target named is T1, active p38 alpha enzyme (Upstate Biotechnology) (Homo sapiens, UniProt Q16539).
T1 construct: purchased Upstate Biotechnology
The experiment can be described thus: p38α biochemical assay (ATP turnover, luminescent detection, Cambrex PKlight). Particulars: p38α kinase; Table 1 Biological Activity. The procedure, abridged: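 Active p38α phosphorylates MapkapK2 whole protein with 1.4 uM final ATP, 2 h at 30C, in Tris/MOPS buffer with MgCl2, CaCl2, EGTA, EDTA, glycerol, β-mercaptoethanol and 1 mg/ml BSA. Compounds pin-delivered from DMSO; total ATP turnover read by luminescence after PKlight addition.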

T1 sequence (Q16539 whole entry): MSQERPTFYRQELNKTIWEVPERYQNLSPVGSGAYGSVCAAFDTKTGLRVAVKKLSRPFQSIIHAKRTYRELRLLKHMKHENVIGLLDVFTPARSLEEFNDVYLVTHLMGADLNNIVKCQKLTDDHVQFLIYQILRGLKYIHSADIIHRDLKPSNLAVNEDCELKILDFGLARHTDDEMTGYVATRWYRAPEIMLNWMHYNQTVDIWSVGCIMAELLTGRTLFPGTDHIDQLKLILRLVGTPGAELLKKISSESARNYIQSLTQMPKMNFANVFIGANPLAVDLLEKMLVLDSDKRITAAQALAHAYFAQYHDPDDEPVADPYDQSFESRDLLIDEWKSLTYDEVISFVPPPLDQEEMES

For orientation: IC50 means the concentration that gives 50% inhibition. A low value points to greater potency. Molecule `CC(C)NC(=O)c1csc(-c2oc(CNCCc3ccc(Cl)cc3)nc2-c2ccc(F)cc2)n1` [Example 1150] had an IC50 above 1 µM.

As for `CC(C)NC(=O)c1csc(-c2oc(CNCCc3cccc(Cl)c3)nc2-c2ccc(F)cc2)n1` [Example 1151], the IC50 was above 1 µM. For `CC(C)NC(=O)c1csc(-c2oc(CNC3CC(C)(C)NC(C)(C)C3)nc2-c2ccc(F)cc2)n1` [Example 1152] the value was above 1 µM; for `CCN(CC)CCCC(C)NCc1nc(-c2ccc(F)cc2)c(-c2nc(C(=O)NC(C)C)cs2)o1` (stereo not drawn) [Example 1153], above 1 µM. To `CC(C)NC(=O)c1csc(-c2oc(CNCc3ccc(F)c(Cl)c3)nc2-c2ccc(F)cc2)n1` [Example 1154] belongs above 1 µM; to `CC(C)NC(=O)c1csc(-c2oc(CN(CCC#N)Cc3ccccc3)nc2-c2ccc(F)cc2)n1` [Example 1155], above 1 µM; to `CC(C)NC(=O)c1csc(-c2oc(CNCCNC(=O)OC(C)(C)C)nc2-c2ccc(F)cc2)n1` [Example 1156], above 1 µM. To `CC(C)NC(=O)c1csc(-c2oc(CNCCc3c[nH]c4ccccc34)nc2-c2ccc(F)cc2)n1` [Example 1157] belongs above 1 µM; to `CC(C)NC(=O)c1csc(-c2oc(CNCc3ccc(C(C)(C)C)cc3)nc2-c2ccc(F)cc2)n1` [Example 1158], above 1 µM; to `CC(C)NC(=O)c1csc(-c2oc(CNCCCN(C)c3ccccc3)nc2-c2ccc(F)cc2)n1` [Example 1159], above 1 µM. In turn, `CC(C)NC(=O)c1csc(-c2oc(CNCC3(O)CCCCC3)nc2-c2ccc(F)cc2)n1` [Example 1160] registered an IC50 above 1 µM. To `COc1cc(CNCc2nc(-c3ccc(F)cc3)c(-c3nc(C(=O)NC(C)C)cs3)o2)cc(OC)c1` [Example 1161] belongs above 1 µM. To `COc1ccc(CNCc2nc(-c3ccc(F)cc3)c(-c3nc(C(=O)NC(C)C)cs3)o2)cc1OC` [Example 1162] belongs above 1 µM; to `CC(C)NC(=O)c1csc(-c2oc(CNCC(=O)c3ccccc3)nc2-c2ccc(F)cc2)n1` [Example 1163], above 1 µM; to `CCOC(=O)N1CCC(NCc2nc(-c3ccc(F)cc3)c(-c3nc(C(=O)NC(C)C)cs3)o2)CC1` [Example 1164], above 1 µM. For `CC(C)NC(=O)c1csc(-c2oc(CNCCCNC(=O)OC(C)(C)C)nc2-c2ccc(F)cc2)n1` [Example 1165] the value was above 1 µM; for `CC(C)NC(=O)c1csc(-c2oc(CNCc3ccc(C(F)(F)F)cc3)nc2-c2ccc(F)cc2)n1` [Example 1166], above 1 µM; for `CC(C)NC(=O)c1csc(-c2oc(CNCc3cccc(C(F)(F)F)c3)nc2-c2ccc(F)cc2)n1` [Example 1167], above 1 µM. On to `CC(C)NC(=O)c1csc(-c2oc(CNCc3ccc(Cl)c(Cl)c3)nc2-c2ccc(F)cc2)n1` [Example 1168], for which the IC50 is above 1 µM. Turning to `CC(C)NC(=O)c1csc(-c2oc(CNCc3ccc(Cl)cc3Cl)nc2-c2ccc(F)cc2)n1` [Example 1169], the IC50 is above 1 µM. For `CC(C)NC(=O)c1csc(-c2oc(CNC3CCN(Cc4ccccc4)C3)nc2-c2ccc(F)cc2)n1` (stereo not drawn) [Example 1170] the value was at most 1 µM; for `COc1ccc(OC)c(CCNCc2nc(-c3ccc(F)cc3)c(-c3nc(C(=O)NC(C)C)cs3)o2)c1` [Example 1171], above 1 µM; for `CC(C)NC(=O)c1csc(-c2oc(CNCc3ccc(N(C)C)cc3)nc2-c2ccc(F)cc2)n1` [Example 1172], above 1 µM. For `COc1ccc(CNCc2nc(-c3ccc(F)cc3)c(-c3nc(C(=O)NC(C)C)cs3)o2)cc1O` [Example 1173], the half-inhibitory concentration (IC50) is at most 1 µM. With `CC(C)NC(=O)c1csc(-c2oc(CNC3CCN(Cc4ccccc4)CC3)nc2-c2ccc(F)cc2)n1` [Example 1174], the half-inhibitory concentration (IC50) was above 1 µM. For `CC(C)NC(=O)c1csc(-c2oc(CNCc3ccccc3OC(F)(F)F)nc2-c2ccc(F)cc2)n1` [Example 1175] the value was at most 1 µM; for `CC(C)NC(=O)c1csc(-c2oc(CNCCc3ccc(S(N)(=O)=O)cc3)nc2-c2ccc(F)cc2)n1` [Example 1176], at most 1 µM.
